Results: patent EP4617273A1, “FUSED TRICYCLIC PARP1 INHIBITOR, PREPARATION METHOD THEREFOR, AND USE THEREOF” (Haihe Biopharma Co., Ltd., priority 2022, dated 2024)

Assays:
MDA-MB-436 cells = experiment: MDA-MB-436 cell proliferation inhibition test (CellTiter-Glo, 7 days); type: cell-based; conditions: Homo sapiens, MDA-MB-436, 168 h, 7 days incubation
Method: Human breast cancer MDA-MB-436 (purchased from ATCC) cells were cultured in DMEM medium (supplemented with 10% fetal bovine serum with 1% dual antibody) at 37 °C, 5% CO2. The cells were taken from the logarithmic growth phase, digested and prepare cell suspension witha certain concentration, which was inoculated into 96-well plates. 100 µL of cell suspension was added to each well of the 96-well plates, incubated overnight, then different concentrations of compounds were added, and the cells were incubated in the cell culture incubator for 7 days. At the end of incubation, 50 µL of CellTiter-Glo reagent was added to each well, mixed with a microplate and shaked for 2 min, and left at rt for 60 min, then the fluorescence value was read with a Spark® multimode microplate reader. […] Table 2. proliferation inhibitory activity of compounds of the present invention on MDA-MB-436 cells

MDR1 = experiment: MDR1-MDCK II cell model of bidirectional permeability; type: in vitro ADME; conditions: dog, 2 µM, 2.5 h; for Papp A→B at 2.5 h, 2 µM: apical-to-basolateral; for Papp B→A at 2.5 h, 2 µM: basolateral-to-apical
Method: (§1) 2 µM of the test compound was added to the wells at the apical side or the basolateral side of the monolayer of cells and incubated for 2.5 h at 37.0°C in a 5.0% CO2 incubator. Cell monolayer integrity was determined by Lucifer yellowrejection assay. The buffer was removed from the apical side and basolateral side, and the concentration of the subject compounds was determined using LC-MS/MS. The concentration data were used to calculate the apparent permeabilitycoefficients of apical-to-basolateral (A-B) and basolateral-to-apical (B-A)side, and to calculate efflux ratio with the formula: Efflux Ratio = Papp (B-A) / Papp (A-B) Table 3. bidirectional permeability of MDR1-MDCK II cells for compounds of the present invention

MDR1 (P-gp) = experiment: as above; type: in vitro ADME; conditions: dog, Efflux Ratio = Papp (B-A) / Papp (A-B), read-out: ER ratio
Method: as §1

[1] = target: T1, Recombinant human PARP1 protein (Homo sapiens, UniProt P09874); experiment: biochemical
T1 sequence (P09874 whole entry): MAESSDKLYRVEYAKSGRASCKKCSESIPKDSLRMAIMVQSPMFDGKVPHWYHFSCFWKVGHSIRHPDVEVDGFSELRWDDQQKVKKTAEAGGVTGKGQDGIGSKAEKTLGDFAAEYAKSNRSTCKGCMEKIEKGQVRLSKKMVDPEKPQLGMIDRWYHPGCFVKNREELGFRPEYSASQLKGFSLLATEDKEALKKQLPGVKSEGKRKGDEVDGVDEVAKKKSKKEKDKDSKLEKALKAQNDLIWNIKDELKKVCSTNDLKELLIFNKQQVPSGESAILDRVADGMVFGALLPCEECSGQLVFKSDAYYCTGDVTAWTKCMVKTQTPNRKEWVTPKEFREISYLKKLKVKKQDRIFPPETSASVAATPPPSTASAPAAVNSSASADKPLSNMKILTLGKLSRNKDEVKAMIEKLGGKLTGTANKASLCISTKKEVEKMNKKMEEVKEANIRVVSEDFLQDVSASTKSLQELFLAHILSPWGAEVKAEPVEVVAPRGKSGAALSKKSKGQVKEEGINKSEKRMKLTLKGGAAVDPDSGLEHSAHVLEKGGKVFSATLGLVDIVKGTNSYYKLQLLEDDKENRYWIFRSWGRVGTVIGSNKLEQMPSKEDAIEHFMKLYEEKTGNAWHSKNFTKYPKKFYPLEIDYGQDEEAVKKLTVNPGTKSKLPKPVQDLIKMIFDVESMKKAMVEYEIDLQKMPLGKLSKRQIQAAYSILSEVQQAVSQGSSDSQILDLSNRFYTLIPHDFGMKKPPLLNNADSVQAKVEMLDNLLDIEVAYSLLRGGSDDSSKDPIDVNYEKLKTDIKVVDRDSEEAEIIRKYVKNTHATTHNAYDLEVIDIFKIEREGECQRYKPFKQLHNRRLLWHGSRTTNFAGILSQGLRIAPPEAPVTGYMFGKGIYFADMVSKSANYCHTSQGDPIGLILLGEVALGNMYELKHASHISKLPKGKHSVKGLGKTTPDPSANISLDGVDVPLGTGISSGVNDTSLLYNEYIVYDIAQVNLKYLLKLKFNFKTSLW
Method: (§2) The PARP1/2 inhibitory activity of the compounds of the present invention was tested in an assay using Histone as a substrate.
(§3) Aim of the assay: to test the PARP1/2 enzymatic activity inhibition IC50 values of the compounds of the present application according to established experimental methods.
(§4) 1. Compound Configuration: Dilute the compounds with DMSO in 384-well plates to a 1000-fold final concentration and set aside.
(§5) 1) Dilute Histone with PBS, add 25uL of Histone mixture to each well and incubate for 2 h. 2) Wash each well 5 times using PBST solution. Remove the solution with a clean paper towel.3) Add 75 uL of Blocking buffer to each well and incubate for 1 h at rt. 4) Wash each well 5 times using PBST solution. Remove the solution with a clean paper towel.
(§6) 2) Use 1× Assay buffer to prepare 2.5× final concentration of PARP1 solution. 3) Add 10 uL of enzyme solution to the compound wells and Max control wells; add 10 uL of 1× Assay buffer. […] 6) Centrifuge at 1000 rpm for 60 seconds and incubate at rt for 2 h. 7) Each well was washed 5 times with PBST solution. Remove the solution with a clean paper towel.
(§7) 1) Prepare Streptavidin-HRP solution, add 25 µL to each well, centrifuge at 1000 rpm for 60 sec, and incubate at rt for 30 min. 2) Wash each well 5 times using PBST solution. Remove the solution with a clean paper towel. 3) Add 50 µL of ELISA Chemiluminescent Substrate per well. 4) Centrifuge at 1000 rpm for 60 seconds and read with EnSight after 5 min.
(§8) The inhibition rate was calculated using the following formula: % inhibition = (max signal - compound signal) / (max signal - min signal) × 100, where 'min signal' is the mean value of negative control wells and 'max signal' is the mean value of positive control wells.
(§9) Fitting the quantitative effect curve: using the log value of the concentration as the X-axis and the percentage inhibition as the Y-axis; using the log(inhibitor) vs. response-variable slope method in software GraphPadPrism5 to fit the quantitative effect curve to calculate the IC50 value for the inhibition of the enzyme activity by the compounds of the present invention. The fitting formula is: Y=Bottom+ (Top-Bottom)/(1+10^((logIC50-X)*HillSlope)).

[2] = target: T1, Recombinant human PARP1 protein; experiment: PARP1 enzymatic inhibitory activity, histone substrate, chemiluminescent ELISA; conditions: PARP2 IC50 over PARP1 IC50
Method: as §2, §3, §4, §5, §6, §7, §8, §9

[3] = target: T2, recombinant human PARP2 protein (Homo sapiens, UniProt Q9UGN5); experiment: PARP2 enzymatic inhibitory activity, histone substrate, chemiluminescent ELISA; type: biochemical; conditions: histone substrate, 500 µM NAD+ not added; read-out: PARP2 IC50
T2 construct: purchased BPS 80502
T2 sequence (Q9UGN5 whole entry): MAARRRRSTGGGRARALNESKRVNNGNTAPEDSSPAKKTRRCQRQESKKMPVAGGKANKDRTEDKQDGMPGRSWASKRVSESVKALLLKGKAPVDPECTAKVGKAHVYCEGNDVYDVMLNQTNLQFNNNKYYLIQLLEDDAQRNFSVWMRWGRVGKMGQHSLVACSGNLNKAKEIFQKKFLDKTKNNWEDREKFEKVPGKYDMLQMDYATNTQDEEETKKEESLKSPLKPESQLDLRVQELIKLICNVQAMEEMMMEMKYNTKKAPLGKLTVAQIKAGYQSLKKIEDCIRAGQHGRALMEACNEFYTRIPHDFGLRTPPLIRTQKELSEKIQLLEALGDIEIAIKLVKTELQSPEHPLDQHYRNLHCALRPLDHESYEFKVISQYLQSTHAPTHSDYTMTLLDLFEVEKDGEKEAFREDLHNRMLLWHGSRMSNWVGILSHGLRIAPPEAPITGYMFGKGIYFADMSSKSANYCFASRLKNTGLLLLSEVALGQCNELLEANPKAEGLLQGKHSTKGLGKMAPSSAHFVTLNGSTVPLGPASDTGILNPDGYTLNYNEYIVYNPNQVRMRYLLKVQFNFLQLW
Method: The PARP2 inhibitory activity assay was performed as in Experimental Method 1, except that PARP1 solution in step 2 of "3. Ribosylation reaction" was replaced with recombinant human PARP2 solution, and 500 µM NAD+ was not added in step 5 of the ribosylation reaction. Table 1. IC50 for inhibition of PARP1/2 enzymes by compounds of the present invention

[4] = Preliminary pharmacokinetic test in mice; type: in vivo; conditions: male, ICR; for AUC(0-t) / clearance / half-life: mouse plasma; for bioavailability: plasma, oral, mouse, p.o. 5 mg/kg versus i.v. 1 mg/kg
Method: 1. Healthy ICR mice were administered the tested compounds intravenously (1 mg/kg) or by gavage (5 mg/kg). Nine male mice weighing 30-35 g for each route of administration were randomly divided into three groups of three mice each.
The mice were fasted for 12h before the test and allowed to drink water freely. The mice were fed 4h after the administration.
Intravenous and gavage administration: 0.25h, 0.5h, 1.0h, 2.0h, 3.0h, 4.0h, 6.0h, 8.0h and 24h after administration.
Blood was collected continuously, and 3 animals were collected at each time point. Plasma collection and processing: 30-40 µL of venous blood was collected from the mouse retroorbital venous plexus at the above set time points, placed in an EDTA-K2 test tube, centrifuged at 3500 rpm for 10 min, and plasma was separated and frozen in a -20 °C refrigerator.
The concentration of the compounds in mouse plasma was determined by LC/MS/MS. Pharmacokinetic parameters after administration were calculated using the […] of Phoenix 8.3 software (Pharsight, USA).

| Structure (SMILES) | IC50 (MDA-MB-436 cells) [nM] | Papp A→B at 2.5 h, 2 µM (MDR1) [×10⁻⁶ cm/s] | Papp B→A at 2.5 h, 2 µM (MDR1) [×10⁻⁶ cm/s] | efflux ratio at 2.5 h, 2 µM (MDR1 (P-gp)) | IC50 [1] [nM] | PARP1/2 Fold selectivity [2] | IC50 [3] [nM] | AUC(0-t) ([4]; iv, i.v. 1 mg/kg) [ng·h/mL] | clearance ([4]; iv, i.v. 1 mg/kg) [mL/min/kg] | half-life ([4]; iv, i.v. 1 mg/kg) [h] | bioavailability [4] [%] | AUC(0-t) ([4]; po, p.o. 5 mg/kg) [ng·h/mL] | half-life ([4]; po, p.o. 5 mg/kg) [h] |
| --- | --- | --- | --- | --- | --- | --- | --- | --- | --- | --- | --- | --- | --- |
| CNC(=O)c1ccc(N2CCN(Cc3ccc4c(c3F)NC(=O)N3CC5(CC5)N=C43)CC2)c(F)n1 [Compound 138] | 3 | 14.7 | 17 |  |  |  |  |  |  |  |  |  |  |
| CNC(=O)c1ccc(N2CCN(Cc3ccc4nc(C)c(=O)[nH]c4c3F)CC2)c(F)n1 [AZD-9574] | 15.7 | 19.4 | 19.4 | 1 |  |  |  |  |  |  |  |  |  |
| CNC(=O)c1ccc(N2CCN(Cc3ccc4c(c3F)NC(=O)N3C4=NC[C@@H]3C)CC2)c(Cl)n1 [Compound 156] | 25 | 16.3 | 21.1 |  | 1.9 |  |  |  |  |  |  |  |  |
| CNC(=O)c1ccc(N2CCN(Cc3ccc4c(c3F)NC(=O)N3CC(F)(F)CN=C43)CC2)c(Cl)n1 [Compound 159] | 2.2 |  |  |  | 0.47 | 207.4 | 97.5 |  |  |  |  |  |  |
| CNC(=O)c1ccc(N2CCN(Cc3ccc4c(c3F)NC(=O)N3C4=NC[C@@H]3C)CC2)c(F)n1 [Compound 137] | 22.6 |  |  |  | 1.8 | 466.3 | 1400 |  |  |  |  |  |  |
| CNC(=O)c1ccc(N2CCN(Cc3ccc4c(c3F)NC(=O)N3C[C@@H](C)N=C43)CC2)c(Cl)n1 [Compound 154] | 0.33 | 13.9 | 22.8 | 1.64 | 1.6 | 706.9 | 1130 | 7240 | 2.3 | 1.1 | 62.1 | 22500 | 2.3 |
| CNC(=O)c1ccc(N2CCN(Cc3ccc4c(c3)[nH]c(=O)c3nc(C)oc34)CC2)c(F)n1 [Compound 102] | 3.7 |  |  |  | 1 | 521.6 | 522 |  |  |  |  |  |  |
| CNC(=O)c1ccc(N2CCN(Cc3ccc4c(c3F)NC(=O)N3C[C@@H](C)N=C43)CC2)c(F)n1 [Compound 132] | 12.1 | 12.8 | 26.8 | 2.1 | 1.5 | 191.8 | 288 | 6630 | 2.8 | 3 | 98.7 | 33100 | 4.4 |
| CNC(=O)c1ccc(N2CCN(Cc3ccc4c(c3F)NC(=O)N3CC(F)(F)CN=C43)CC2)c(C)n1 [Compound 160] | 5.7 | 14.3 | 8.78 |  | 0.59 |  |  | 10500 | 1.6 | 0.86 | 70.7 | 26100 | 0.9 |
| CNC(=O)c1ccc(N2CCN(Cc3ccc4c([nH]c(=O)c5ccnn54)c3F)CC2)c(Cl)n1 [Compound 113] | < 1.52 |  |  |  | 0.8 | 1626.3 | 1300 |  |  |  |  |  |  |
| CNC(=O)c1ccc(N2CCN(C(C)c3ccc4c(c3)[nH]c(=O)c3ccnn34)CC2)c(F)n1 (centres unmarked) [Compound 12] | < 1.52 |  |  |  | 0.57 | 374.9 | 214 |  |  |  |  |  |  |
| CNC(=O)c1ccc(N2CCN(Cc3ccc4c(c3)[nH]c(=O)c3nn(C)cc34)CC2)c(F)n1 [Compound 22] | 4.6 |  |  |  | 0.8 | 447.6 | 358 |  |  |  |  |  |  |
| CNC(=O)c1ccc(N2CCN(Cc3ccc4c(c3F)NC(=O)N3CC5(CC5)N=C43)CC2)c(C)n1 [Compound 157] | 3.6 | 15.1 | 21.6 |  | 0.5 |  |  |  |  |  |  |  |  |
| CNC(=O)c1ccc(N2CCN(Cc3ccc4c(c3F)NC(=O)N3CCCN=C43)CC2)c(Cl)n1 [Compound 141] | 5.8 | 16.2 | 23.1 |  | 1.3 |  |  | 3020 | 5.5 | 1.2 | 92.6 | 14000 | 2.5 |
| CNC(=O)c1ccc(N2CCN(Cc3ccc4c(c3F)NC(=O)N3CCCN=C43)CC2)c(F)n1 [Compound 139] | 10.4 | 16.7 | 21.8 |  | 1 |  |  | 2820 | 5.9 | 3.1 | 98 | 13800 | 3.2 |
| CNC(=O)c1ccc(N2CCN(Cc3ccc4c(c3F)NC(=O)N3CC5(CC5)N=C43)CC2)c(Cl)n1 [Compound 158] | 2.2 | 14.7 | 14.1 |  | 0.48 |  |  | 3090 | 5.5 | 0.8 | 108 | 11000 | 1 |
| CNC(=O)c1ccc(N2CCN(Cc3ccc4c(c3F)NC(=O)N3CC(C)N=C43)CC2)c(F)n1 (centres unmarked) [Compound 131] | 15.3 |  |  |  | 1.2 | 1064 | 1280 |  |  |  |  |  |  |
| CNC(=O)c1ccc(N2CCN(Cc3ccc4c(c3)[nH]c(=O)c3nc(C)sc34)CC2)c(F)n1 [Compound 103] | 1.4 |  |  |  | 0.9 | 922.1 | 829 |  |  |  |  |  |  |
